Laboratory results taken from ChEMBL document CHEMBL3751755, “Developing steroidal aromatase inhibitors-an effective armament to win the battle against breast cancer” (Eur J Med Chem, 2015).

Each molecule was assayed against T1, Aromatase (Homo sapiens, UniProt P11511). Conditions: not given.
T1 sequence (P11511 whole entry): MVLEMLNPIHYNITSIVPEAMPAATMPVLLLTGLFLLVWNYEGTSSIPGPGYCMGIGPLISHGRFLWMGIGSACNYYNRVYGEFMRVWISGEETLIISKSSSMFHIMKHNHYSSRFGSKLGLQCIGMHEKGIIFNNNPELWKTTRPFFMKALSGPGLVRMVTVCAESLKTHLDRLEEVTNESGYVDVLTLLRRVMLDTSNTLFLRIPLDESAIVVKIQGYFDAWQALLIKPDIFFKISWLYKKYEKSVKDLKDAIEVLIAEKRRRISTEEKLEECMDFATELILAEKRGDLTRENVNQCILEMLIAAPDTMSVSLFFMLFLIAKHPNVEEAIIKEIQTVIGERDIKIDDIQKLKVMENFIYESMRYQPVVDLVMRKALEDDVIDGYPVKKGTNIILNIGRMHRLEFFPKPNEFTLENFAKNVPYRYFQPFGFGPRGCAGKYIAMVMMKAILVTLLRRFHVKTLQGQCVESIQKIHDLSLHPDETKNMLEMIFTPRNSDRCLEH

Structure (SMILES)	Ki [µM]
CC1=C[C@@]2(C)C(=CC1=O)[C@@H](Br)C[C@@H]1[C@@H]2CC[C@]2(C)C(=O)CC[C@@H]12	0.081
C[C@]12C=C(CCCc3ccccc3)C(=O)C=C1CC[C@@H]1[C@@H]2CC[C@]2(C)C(=O)CC[C@@H]12	0.0161
CC1=C[C@@]2(C)C(=CC1=O)CC[C@@H]1[C@@H]2CC[C@]2(C)C(=O)CC[C@@H]12	0.046

Each molecule was assayed against T1, Aromatase (assay: Competitive inhibition of human aromatase extracted from placental microsomes after 10 mins in presence of [1beta-3H]androstenedione). Conditions: not given.

Structure (SMILES)	Ki [µM]
CCCC[C@H]1C[C@@H]2[C@H](CC[C@]3(C)C(=O)CC[C@@H]23)[C@@]2(C)CCC(=O)C=C12	0.0014
C#CC[C@H]1C[C@@H]2[C@H](CC[C@]3(C)C(=O)CC[C@@H]23)[C@@]2(C)CCC(=O)C=C12	0.037
CC[C@@H]1C[C@@H]2[C@H](CC[C@]3(C)C(=O)CC[C@@H]23)[C@@]2(C)CCC(=O)C=C12	0.0014
C[C@]12CCC(=O)C=C1[C@@H](Cc1ccccc1)C[C@@H]1[C@@H]2CC[C@]2(C)C(=O)CC[C@@H]12	0.01
C#CC[C@@H]1C[C@@H]2[C@H](CC[C@]3(C)C(=O)CC[C@@H]23)[C@@]2(C)CCC(=O)C=C12	0.01
C[C@@H]1C[C@@H]2[C@H](CC[C@]3(C)C(=O)CC[C@@H]23)[C@@]2(C)CCC(=O)C=C12	0.0014
C/C=C1\C[C@@H]2[C@H](CC[C@]3(C)C(=O)CC[C@@H]23)[C@@]2(C)CCC(=O)C=C12	0.0049
C[C@H]1C[C@@H]2[C@H](CC[C@]3(C)C(=O)CC[C@@H]23)[C@@]2(C)CCC(=O)C=C12	0.0014
CCCC[C@@H]1C[C@@H]2[C@H](CC[C@]3(C)C(=O)CC[C@@H]23)[C@@]2(C)CCC(=O)C=C12	0.0014
C=C[C@@H]1C[C@@H]2[C@H](CC[C@]3(C)C(=O)CC[C@@H]23)[C@@]2(C)CCC(=O)C=C12	0.0051

The molecules below were run against T1, Aromatase (assay: Competitive inhibition of aromatase (unknown origin)). Conditions: not given.

Structure (SMILES)	Ki [µM]	IC50 [µM]
C[C@]12CCC3C(C[C@H]4COC[C@@]35CCC(=O)C=C45)C1CCC2=O (stereo not given in full)	10	
C[C@]12CC[C@H]3[C@@H](CCC4=CC(=O)CC[C@@]43C(=O)C(F)(F)F)[C@@H]1CCC2=O		26
C[C@]12CC[C@H]3[C@@H](CCC4=CC(=O)CC[C@@]43CN=[N+]=[N-])[C@@H]1CCC2=O	0.005	
C[C@]12CC[C@H]3[C@@H](CC=C4[C@H]5CSC[C@]43CCC5=O)[C@@H]1CCC2=O	10	
C[C@]1(CC#N)CC[C@H]2[C@@H](CCC3=CC(=O)CC[C@@]32C)[C@@H]1CC#N	10	
C=CC1OC2(O)CC[C@]13C(=CC[C@@H]1[C@@H]3CC[C@]3(C)C(=O)CC[C@@H]13)C2 (stereo not given in full)	10	
CSC[C@]12CCC(=O)C=C1CC[C@@H]1[C@@H]2CC[C@]2(C)C(=O)CC[C@@H]12	0.001	
C[C@]12CC[C@H]3[C@@H](CCC4=CC(=O)[C@H]5CC[C@]43C5)[C@@H]1CCC2=O	10	

These molecules were tested against T1, Aromatase (assay: Inhibition of aromatase (unknown origin)). Conditions: not given.
Set-up: inhibition (INH): concentration or dose not given beside the values

Structure (SMILES)	Ki [µM]	IC50 [µM]
C[C@]12CC[C@H]3[C@@H](CCC4=CC(=O)CC[C@@]43[C@@H]3CN3)[C@@H]1CC[C@@H]2O	0.0034	
C[C@]12CC[C@H]3[C@@H](CCC4=CC(=O)CC[C@@]43[C@H]3CN3)[C@@H]1CCC2=O	0.0034	
C[C@]12CC[C@H]3[C@@H](CCC4=CC(=O)CC[C@@]43[C@H]3CN3)[C@@H]1CC[C@@H]2O	0.0034	
COC(=O)C1=C(C)NC(C)=C(C(=O)OC)C1C[C@H]1C[C@@H]2[C@H](CC[C@]3(C)C(=O)CC[C@@H]23)[C@@]2(C)C=CC(=O)C=C12		10
C[C@]12CCC(=O)C(O)=C1C(=O)C[C@@H]1[C@@H]2CC[C@]2(C)C(=O)CC[C@@H]12	0.042	

Same assay, conditions: human

Structure (SMILES)	inhibition (INH) [%]
C[C@]12CC[C@H]3[C@@H](CC[C@H]4CC(=O)C[C@H]5[C@@H](O)[C@]435)[C@@H]1CCC2=O	40
CC(=O)[C@@]1(C)CC[C@H]2[C@@H](CCC3=C(O)C(=O)CC[C@@]32C)C1CC#N (stereo not given in full)	46.5

What follows are molecules tested against T1, Aromatase (assay: Competitive inhibition of human aromatase extracted from placental microsomes by Dixon plot analysis in presence of [1beta-3H]AD). Conditions: read-out: Ki.

Structure (SMILES)	Ki [µM]
CC1(C)C[C@@]2(C)C(=CC1=O)CC[C@@H]1[C@@H]2CC[C@]2(C)C(=O)CC[C@@H]12	0.0088
CO[C@H]1C=C2C(=O)C[C@@H]3[C@H](CC[C@]4(C)C(=O)CC[C@@H]34)[C@@]2(C)CC1	0.7
C[C@H]1C[C@@]2(C)C(=CC1=O)CC[C@@H]1[C@@H]2CC[C@]2(C)C(=O)CC[C@@H]12	0.022
C[C@]12C[C@@H](Cl)C(=O)C=C1CC[C@@H]1[C@@H]2CC[C@]2(C)C(=O)CC[C@@H]12	0.045
C[C@]12CCC(=O)C=C1C(=O)C[C@@H]1[C@@H]2CC[C@]2(C)C(=O)[C@H](O)C[C@@H]12	1.18
C[C@]12C[C@@H](Br)C(=O)C=C1CC[C@@H]1[C@@H]2CC[C@]2(C)C(=O)CC[C@@H]12	0.045
CCO[C@@H]1C[C@@]2(C)C(=CC1=O)CC[C@@H]1[C@@H]2CC[C@]2(C)C(=O)CC[C@@H]12	0.67
CO[C@@H]1C[C@@]2(C)C(=CC1=O)CC[C@@H]1[C@@H]2CC[C@]2(C)C(=O)CC[C@@H]12	0.67
C[C@]12C[C@@H](O)C(=O)C=C1CC[C@@H]1[C@@H]2CC[C@]2(C)C(=O)CC[C@@H]12	0.67

Same assay, conditions: read-out: Ki(app)

Structure (SMILES)	Ki [µM]
C[C@]12CCC(=O)C=C1C(=O)C[C@@H]1[C@@H]2CC[C@]2(C)C(=O)[C@H](Br)C[C@@H]12	0.15

What follows are molecules tested against T1, Aromatase (assay: Inhibition of human aromatase extracted from placental microsomes using [1beta-3H]androstenedione as substrate after 20 mins by radiometric assay). Conditions: not given.

Structure (SMILES)	IC50 [µM]
CC1=C[C@@]2(C)C(=CC1=O)[C@@H](Br)C[C@@H]1[C@@H]2CC[C@]2(C)C(=O)CC[C@@H]12	0.71
C[C@]12C=C(CCCc3ccccc3)C(=O)C=C1CC[C@@H]1[C@@H]2CC[C@]2(C)C(=O)CC[C@@H]12	0.14
C[C@]12CC[C@H](OC=O)C=C1C(=O)C[C@@H]1[C@@H]2CC[C@]2(C)C(=O)CC[C@@H]12	1.7
CC(=O)O[C@@H]1C=C2C(=O)C[C@@H]3[C@H](CC[C@]4(C)C(=O)CC[C@@H]34)[C@@]2(C)CC1	1.7
CC1=C[C@@]2(C)C(=CC1=O)CC[C@@H]1[C@@H]2CC[C@]2(C)C(=O)CC[C@@H]12	0.58
C[C@]12CCCC=C1C(=O)C[C@@H]1[C@@H]2CC[C@]2(C)C(=O)CC[C@@H]12	1.7

What follows are molecules tested against T1, Aromatase (assay: Inhibition of human aromatase extracted from placental microsomes using [1beta-3H]AD as substrate by radiometric assay). Conditions: not given.

Structure (SMILES)	IC50 [µM]
CC1(C)C[C@@]2(C)C(=CC1=O)CC[C@@H]1[C@@H]2CC[C@]2(C)C(=O)CC[C@@H]12	0.089
C[C@H]1C[C@@]2(C)C(=CC1=O)CC[C@@H]1[C@@H]2CC[C@]2(C)C(=O)CC[C@@H]12	0.25

What follows are molecules tested against T1, Aromatase (assay: Competitive inhibition of human aromatase extracted from placental microsomes by Dixon plot analysis in presence of [1beta-3H]androstenedione). Conditions: read-out: Ki.

Structure (SMILES)	Ki [µM]
C[C@]12CC[C@H]3[C@@H](C(=O)C=C4CCCC[C@@]43CO)[C@@H]1CCC2=O	11.1
C[C@]12CC[C@H](OC=O)C=C1C(=O)C[C@@H]1[C@@H]2CC[C@]2(C)C(=O)CC[C@@H]12	16
CC[C@]12C=CC(=O)C=C1CC[C@H]1[C@@H]3CCC(=O)[C@@]3(C)CC[C@@H]12	0.0082
CC(=O)O[C@@H]1C=C2C(=O)C[C@@H]3[C@H](CC[C@]4(C)C(=O)CC[C@@H]34)[C@@]2(C)CC1	5.5
CC[C@]12CCC(=O)C=C1CC[C@@H]1[C@@H]2CC[C@]2(C)C(=O)CC[C@@H]12	0.0082
CC[C@]12CCC(=O)C=C1C=C[C@@H]1[C@@H]2CC[C@]2(C)C(=O)CC[C@@H]12	0.0082
C[C@]12CCCCC1=CC(=O)[C@@H]1[C@@H]2CC[C@]2(C)C(=O)CC[C@@H]12	0.143
CC[C@]12C=CC(=O)C=C1C=C[C@H]1[C@@H]3CCC(=O)[C@@]3(C)CC[C@@H]12	0.0082
C[C@]12CCCC=C1C(=O)C[C@@H]1[C@@H]2CC[C@]2(C)C(=O)CC[C@@H]12	0.61

Same assay, conditions: read-out: Ki(app)

Structure (SMILES)	Ki [µM]
C[C@]12CC[C@H]3[C@@H](C(=O)C=C4CCCC[C@@]43O)[C@@H]1CCC2=O	1.1
CCCCC[C@@H]1C[C@@H]2[C@H](CC[C@]3(C)C(=O)CC[C@@H]23)[C@@]2(C)C=CC(=O)C=C12	0.005
CC(=O)O[C@]12CCCCC1=CC(=O)[C@H]1[C@@H]3CCC(=O)[C@@]3(C)CC[C@@H]12	1.1
CC[C@@H]1C[C@@H]2[C@H](CC[C@]3(C)C(=O)CC[C@@H]23)[C@@]2(C)C=CC(=O)C=C12	0.0047

Each molecule was assayed against T1, Aromatase (assay: Inhibition of human aromatase extracted from placental microsomes using 4-[14C]androstenedione as substrate at 0.25 to 1.25 uM after 15 mins). Conditions: not given.

Structure (SMILES)	INH [%]
C[C@]12CC[C@H]3[C@@H](CCC4=CC(=O)CC[C@@]43N)[C@@H]1CCC2=O	< 20
C[C@]12CC[C@H]3[C@@H](CCC4=CC(=O)CC[C@@]43/C=N/O)[C@@H]1CCC2=O	< 20
COC(=O)N[C@]12CCC(=O)C=C1CC[C@H]1[C@@H]3CCC(=O)[C@@]3(C)CC[C@@H]12	< 20
CC(=O)NC[C@]12CCC(=O)C=C1CC[C@@H]1[C@@H]2CC[C@]2(C)C(=O)CC[C@@H]12	< 20
C[C@]12CC[C@H]3[C@@H](CCC4=CC(=O)CC[C@@]43N=C=O)[C@@H]1CCC2=O	< 20
C[C@]12CC[C@H]3[C@@H](CCC4=CC(=O)CC[C@@]43CNC(=O)C(F)(F)F)[C@@H]1CCC2=O	< 20
